# Data as given in patent US5565480A, “Substituted histidines” (SmithKline Beecham Corporation, priority 1995, dated 1996).
# Tested on: pressor response to exogenous angiotensin II
# Assay: Inhibition of pressor response to angiotensin II in conscious rats
# Assay type: in vivo
# Conditions: Rattus norvegicus, iv, change in mean arterial pressure, read-out: IC50, dose of compound needed to produce 50% inhibition of the control response to angiotensin II
# Method: Angiotensin II antagonist activity of the compounds of Formula (I) is assessed by in and in vivo methods. In vitro antagonist activity is determined by the ability of the compounds to compete with ^125 I-angiotensin II for binding to vascular angiotensin II receptors and by their ability to antagonize the contractile response to angiotensin II in the isolated rabbit aorta. In vivo activity is evaluated by the efficacy of the compounds to inhibit the pressor response to exogenous angiotensin II in conscious rats and to lower blood pressure in a rat model of renin dependent hypertension.
# Rats are prepared with indwelling femoral arterial and venous catheters and a stomach tube (Gellai et al., Kidney Int. 15:419, 1979). Two to three days following surgery the rats are placed in a restrainer and blood pressure is continuously monitored from the arterial catheter with a pressure transducer and recorded on a polygraph. The change in mean arterial pressure in response to intravenous injections of […] angiotensin II is compared at various time points prior to and following the administration of the compounds intravenously or orally at doses of 3 to 300 mg/kg. The dose of compound needed to produce 50% inhibition of the control response to angiotensin II (IC50) is used to estimate the potency of the compounds. […]
smiles,measurement,value
"CCCCc1ncc(C[C@H](NC(=O)CCC)C(=O)O)n1Cc1ccccc1Cl [Example 8, 3-[(2-Chlorophenyl)methyl]-2-n-butyl-N-butyrylhistidine]",ED50,10 mg/kg
